# Measurements taken from ChEMBL document CHEMBL5356964, “Design, synthesis and anti-rheumatoid arthritis activity of target TLR4 inhibitors” (Bioorg Med Chem, 2024).
# Calls of active or inactive are those of the source. No cut-off for these calls is given here.
# What was measured:
# RAW264.7 [1] = assay: Antiproliferative activity against LPS-induced- mouse RAW264.7 cells assessed as inhibition of cell growth incubated for 24 hrs by CCK-8 assay; type: functional, cell-based; settings: RAW264.7, 24 h
# [2] = Antiproliferative activity against rat Synovial cell assessed as inhibition of cell growth incubated for 48 hrs by CCK-8 assay; type: functional, cell-based
# RAW264.7 [3] = assay: Antiarthritic activity against LPS-induced mouse RAW264.7 cells assessed as reduction in IL-1beta level at 1 uM incubated for 24 hrs (Rvb 665.1 +/- 82.1 pg/L); type: functional
# Toll-like receptor 4 [4] = target: T1, Toll-like receptor 4 (Homo sapiens, UniProt O00206); assay: Inhibition of TLR4 (unknown origin) using TMB as substrate incubated for 90 mins
# RAW264.7 [5] = assay: Antiarthritic activity against LPS-induced mouse RAW264.7 cells assessed as reduction in TNF-alpha level at 1 uM incubated for 24 hrs (Rvb 653.3 +/- 70.1 pg/L); type: functional
# RAW264.7 [6] = assay: Antiarthritic activity against LPS-induced mouse RAW264.7 cells assessed as reduction in IL-6 level at 1 uM incubated for 24 hrs (Rvb 231.1 +/- 24.2 pg/L); type: functional
# RAW264.7 [7] = assay: Antiproliferative activity against LPS-induced- mouse RAW264.7 cells assessed as cell survival at 1 uM pretreated with compound for 24 hrs followed by LPS induction and measured after 24 hrs; type: functional, cell-based; settings: time 48.0 hrs
# RAW264.7 [8] = assay: Antiarthritic activity against LPS-induced mouse RAW264.7 cells assessed as downregulation of TNF-alpha expression at 1 uM preincubated with compound for 24 hrs followed by LPS-induction and measured after 24 hrs by immunofluorescence analysis; type: functional, cell-based; settings: time 48.0 hrs
# RAW264.7 [9] = assay: Antiarthritic activity against LPS-induced mouse RAW264.7 cells assessed as reduction in IL-1beta level at 1 uM pretreated with compound for 24 hrs followed by LPS induction and measured after 24 hrs; type: functional, cell-based; settings: time 48.0 hrs
# RAW264.7 [10] = assay: Antiarthritic activity against LPS-induced mouse RAW264.7 cells assessed as downregulation of TNF-alpha mRNA expression at 1 uM preincubated with compound for 24 hrs followed by LPS-induction and measured after 24 hrs by RT-PCR analysis; type: functional, cell-based; settings: time 48.0 hrs
# RAW264.7 [11] = assay: Antiarthritic activity against LPS-induced mouse RAW264.7 cells assessed as reduction in TNF-alpha level at 1 uM pretreated with compound for 24 hrs followed by LPS induction and measured after 24 hrs; type: functional, cell-based; settings: time 48.0 hrs
# RAW264.7 [12] = assay: Antiarthritic activity against LPS-induced mouse RAW264.7 cells assessed as downregulation of STAT3 expression at 1 uM preincubated with compound for 24 hrs followed by LPS-induction and measured after 24 hrs by immunofluorescence analysis; type: functional, cell-based; settings: time 48.0 hrs
# RAW264.7 [13] = assay: Antiarthritic activity against LPS-induced mouse RAW264.7 cells assessed as downregulation of TLR4 mRNA expression at 1 uM preincubated with compound for 24 hrs followed by LPS-induction and measured after 24 hrs by RT-PCR analysis; type: functional, cell-based; settings: time 48.0 hrs
# RAW264.7 [14] = assay: Antiarthritic activity against LPS-induced mouse RAW264.7 cells assessed as downregulation of NF-kappaB expression at 1 uM preincubated with compound for 24 hrs followed by LPS-induction and measured after 24 hrs by immunofluorescence analysis; type: functional, cell-based; settings: time 48.0 hrs
# RAW264.7 [15] = assay: Antiarthritic activity against LPS-induced mouse RAW264.7 cells assessed as downregulation of STAT3 mRNA expression at 1 uM preincubated with compound for 24 hrs followed by LPS-induction and measured after 24 hrs by RT-PCR analysis; type: functional, cell-based; settings: time 48.0 hrs
# RAW264.7 [16] = assay: Antiarthritic activity against LPS-induced mouse RAW264.7 cells assessed as downregulation of TLR4 expression at 1 uM preincubated with compound for 24 hrs followed by LPS-induction and measured after 24 hrs by immunofluorescence analysis; type: functional, cell-based; settings: time 48.0 hrs
# RAW264.7 [17] = assay: Antiarthritic activity against LPS-induced mouse RAW264.7 cells assessed as downregulation of TLR4 expression at 1 uM preincubated with compound for 24 hrs followed by LPS-induction and measured after 24 hrs by Western blot analysis; type: functional, cell-based; settings: time 48.0 hrs
# RAW264.7 [18] = assay: Antiproliferative activity against LPS-induced- mouse RAW264.7 cells assessed as decrease in number of cells at 1 uM pretreated with compound for 24 hrs followed by LPS induction and measured after 24 hrs; type: functional, cell-based; settings: time 48.0 hrs
# RAW264.7 [19] = assay: Antiarthritic activity against LPS-induced mouse RAW264.7 cells assessed as downregulation of TNF-alpha expression at 1 uM preincubated with compound for 24 hrs followed by LPS-induction and measured after 24 hrs by Western blot analysis; type: functional, cell-based; settings: time 48.0 hrs
# RAW264.7 [20] = assay: Antiarthritic activity against LPS-induced mouse RAW264.7 cells assessed as downregulation of JAK2 expression at 1 uM preincubated with compound for 24 hrs followed by LPS-induction and measured after 24 hrs by immunofluorescence analysis; type: functional, cell-based; settings: time 48.0 hrs
# RAW264.7 [21] = assay: Antiarthritic activity against LPS-induced mouse RAW264.7 cells assessed as downregulation of NF-kappaB expression at 1 uM preincubated with compound for 24 hrs followed by LPS-induction and measured after 24 hrs by Western blot analysis; type: functional, cell-based; settings: time 48.0 hrs
# RAW264.7 [22] = assay: Antiarthritic activity against LPS-induced mouse RAW264.7 cells assessed as downregulation of JAK2 mRNA expression at 1 uM preincubated with compound for 24 hrs followed by LPS-induction and measured after 24 hrs by RT-PCR analysis; type: functional, cell-based; settings: time 48.0 hrs
# RAW264.7 [23] = assay: Antiarthritic activity against LPS-induced mouse RAW264.7 cells assessed as downregulation of NF-kappaB mRNA expression at 1 uM preincubated with compound for 24 hrs followed by LPS-induction and measured after 24 hrs by RT-PCR analysis; type: functional, cell-based; settings: time 48.0 hrs
# RAW264.7 [24] = assay: Antiarthritic activity against LPS-induced mouse RAW264.7 cells assessed as reduction in IL-6 level at 1 uM pretreated with compound for 24 hrs followed by LPS induction and measured after 24 hrs; type: functional, cell-based; settings: time 48.0 hrs
# Mus musculus [25] = assay: Antiarthritic activity against collagen-induced rheumatoid arthritis mouse model assessed as reduction in clinical score at 100 mg/kg administered for 15 days; type: functional, organism-based; settings: time 15.0 day
# RAW264.7 [26] = assay: Antiarthritic activity against LPS-induced mouse RAW264.7 cells assessed as downregulation of STAT3 expression at 1 uM preincubated with compound for 24 hrs followed by LPS-induction and measured after 24 hrs by Western blot analysis; type: functional, cell-based; settings: time 48.0 hrs
# RAW264.7 [27] = assay: Antiarthritic activity against LPS-induced mouse RAW264.7 cells assessed as downregulation of JAK2 expression at 1 uM preincubated with compound for 24 hrs followed by LPS-induction and measured after 24 hrs by Western blot analysis; type: functional, cell-based; settings: time 48.0 hrs
# Mus musculus [28] = assay: Antiarthritic activity against collagen-induced rheumatoid arthritis mouse model assessed as reduction in IL-1beta level at 100 mg/kg administered for 15 days by ELISA analysis; type: functional, organism-based; settings: time 15.0 day
# Mus musculus [29] = assay: Antiarthritic activity against collagen-induced rheumatoid arthritis mouse model assessed as reduction in paw swelling at 100 mg/kg administered for 15 days and measured on day 28; type: functional, organism-based; settings: time 28.0 day
# Mus musculus [30] = assay: Antiarthritic activity against collagen-induced rheumatoid arthritis mouse model assessed as reduction in IL-6 level at 100 mg/kg administered for 15 days by ELISA analysis; type: functional, organism-based; settings: time 15.0 day
# Toll-like receptor 4 [31] = target: T1, Toll-like receptor 4; assay: Potency index, ratio of methotrexate IC50 to test compound IC50 for inhibition of TLR4 (unknown origin) using TMB as substrate incubated for 90 mins
# Mus musculus [32] = assay: Antiarthritic activity against collagen-induced rheumatoid arthritis mouse model assessed as reduction in TNF-alpha level at 100 mg/kg administered for 15 days by ELISA analysis; type: functional, organism-based; settings: time 15.0 day
# T1 sequence (O00206 whole entry): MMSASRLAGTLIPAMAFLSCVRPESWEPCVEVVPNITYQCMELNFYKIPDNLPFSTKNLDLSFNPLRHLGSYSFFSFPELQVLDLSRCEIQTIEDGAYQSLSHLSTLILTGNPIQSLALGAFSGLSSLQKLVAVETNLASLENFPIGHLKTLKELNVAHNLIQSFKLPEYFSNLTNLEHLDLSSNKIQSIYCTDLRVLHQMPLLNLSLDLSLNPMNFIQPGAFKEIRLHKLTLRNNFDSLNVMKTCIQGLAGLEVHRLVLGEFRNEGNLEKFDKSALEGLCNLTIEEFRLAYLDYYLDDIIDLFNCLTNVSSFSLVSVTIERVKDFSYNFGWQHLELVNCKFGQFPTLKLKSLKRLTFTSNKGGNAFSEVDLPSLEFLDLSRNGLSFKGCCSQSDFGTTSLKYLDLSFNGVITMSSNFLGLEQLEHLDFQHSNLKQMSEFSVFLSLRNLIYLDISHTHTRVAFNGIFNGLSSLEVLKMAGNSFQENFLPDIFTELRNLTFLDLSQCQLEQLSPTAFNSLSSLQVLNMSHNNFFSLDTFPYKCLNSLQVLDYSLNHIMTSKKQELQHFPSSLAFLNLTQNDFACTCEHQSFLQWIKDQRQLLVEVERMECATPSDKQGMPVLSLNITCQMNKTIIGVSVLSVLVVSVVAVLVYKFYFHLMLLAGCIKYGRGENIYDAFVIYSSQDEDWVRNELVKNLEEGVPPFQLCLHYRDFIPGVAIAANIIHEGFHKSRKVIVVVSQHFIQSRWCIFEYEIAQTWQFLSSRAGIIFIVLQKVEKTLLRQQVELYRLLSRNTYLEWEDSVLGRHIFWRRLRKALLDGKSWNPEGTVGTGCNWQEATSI
smiles,measurement,setting,value
CC(=O)CC(=O)C1CC(c2ccc(O)cc2)CCC1=O (configuration not stated),IC50,RAW264.7 [1],3210 nM
same,IC50,[2],7940 nM
CCCCC1CCC(=O)C(C(=O)CC(C)=O)C1 (configuration not stated),Activity,RAW264.7 [3],481.6 pg/L
same,IC50,Toll-like receptor 4 [4],1860 nM
same,IC50,RAW264.7 [1],1560 nM
same,Activity,RAW264.7 [5],401.6 pg/L
same,IC50,[2],2720 nM
same,Activity,RAW264.7 [6],187.4 pg/L
CC(=O)CC(=O)C1CC(Cl)CCC1=O (configuration not stated),Activity,RAW264.7 [3],385.1 pg/L
same,IC50,Toll-like receptor 4 [4],1120 nM
same,IC50,RAW264.7 [1],1320 nM
same,Activity,RAW264.7 [5],350.2 pg/L
same,IC50,[2],2450 nM
same,Activity,RAW264.7 [6],133.5 pg/L
CC(=O)CC(=O)C1CC(C(=O)O)CCC1=O (configuration not stated),IC50,RAW264.7 [1],2710 nM
same,IC50,[2],5310 nM
CN(Cc1cnc2nc(N)nc(N)c2n1)c1ccc(C(=O)N[C@@H](CCC(=O)O)C(=O)O)cc1 [METHOTREXATE],Activity,RAW264.7 [7],Active
same,Activity,RAW264.7 [8],Active
same,Activity,RAW264.7 [9],Active
same,Activity,RAW264.7 [10],Active
same,Activity,RAW264.7 [11],Active
same,Activity,RAW264.7 [12],inactive
same,Activity,RAW264.7 [13],Active
same,Activity,RAW264.7 [14],Active
same,Activity,RAW264.7 [15],inactive
same,Activity,RAW264.7 [16],Active
same,Activity,RAW264.7 [17],Active
same,Activity,RAW264.7 [18],Active
same,Activity,RAW264.7 [19],Active
same,Activity,RAW264.7 [3],334.5 pg/L
same,Activity,RAW264.7 [20],inactive
same,IC50,RAW264.7 [1],1230 nM
same,Activity,RAW264.7 [21],Active
same,Activity,RAW264.7 [5],235.3 pg/L
same,Activity,RAW264.7 [22],inactive
same,IC50,[2],2330 nM
same,Activity,RAW264.7 [23],Active
same,Activity,RAW264.7 [24],Active
same,Activity,RAW264.7 [6],115.3 pg/L
CCCC1CCC(C2CCC(=O)C(C(=O)CC(C)=O)C2)CC1 (configuration not stated),Activity,RAW264.7 [3],545.9 pg/L
same,IC50,Toll-like receptor 4 [4],1780 nM
same,IC50,RAW264.7 [1],1710 nM
same,Activity,RAW264.7 [5],478.96 pg/L
same,IC50,[2],3510 nM
same,Activity,RAW264.7 [6],180.7 pg/L
CC(=O)CC(=O)C1CCCCC1=O (configuration not stated),IC50,RAW264.7 [1],3110 nM
same,IC50,[2],4450 nM
CCOC(=O)C1CCC(=O)C(C(=O)CC(C)=O)C1 (configuration not stated),IC50,RAW264.7 [1],2630 nM
same,IC50,[2],5440 nM
CC(=O)CC(=O)C1CC(C2CCC3(CC2)OCCO3)CCC1=O (configuration not stated),IC50,RAW264.7 [1],2510 nM
same,IC50,[2],5220 nM
CC(=O)CC(=O)C1CC(O)CCC1=O (configuration not stated),Activity,RAW264.7 [7],Active
same,Activity,Mus musculus [25],Active
same,Activity,RAW264.7 [8],Active
same,Activity,RAW264.7 [9],Active
same,Activity,RAW264.7 [10],Active
same,Activity,RAW264.7 [26],Active
same,Activity,RAW264.7 [27],Active
same,Activity,RAW264.7 [11],Active
same,Activity,Mus musculus [28],Active
same,Activity,RAW264.7 [12],Active
same,Activity,RAW264.7 [13],Active
same,Activity,RAW264.7 [14],Active
same,Activity,RAW264.7 [15],Active
same,Activity,RAW264.7 [16],Active
same,Activity,RAW264.7 [17],Active
same,Activity,RAW264.7 [18],Active
same,Activity,RAW264.7 [19],Active
same,Activity,Mus musculus [29],Active
same,Activity,RAW264.7 [3],258.3 pg/L
same,Activity,Mus musculus [30],Active
same,Activity,RAW264.7 [20],Active
same,IC50,Toll-like receptor 4 [4],430 nM
same,Ratio IC50,Toll-like receptor 4 [31],2.4
same,IC50,RAW264.7 [1],730 nM
same,Activity,RAW264.7 [21],Active
same,Activity,RAW264.7 [5],151.5 pg/L
same,Activity,RAW264.7 [22],Active
same,IC50,[2],1210 nM
same,Activity,RAW264.7 [23],Active
same,Activity,Mus musculus [32],Active
same,Activity,RAW264.7 [24],Active
same,Activity,RAW264.7 [6],90.2 pg/L
CC(=O)CC(=O)C1CC(NC(=O)OC(C)(C)C)CCC1=O (configuration not stated),IC50,RAW264.7 [1],2670 nM
same,IC50,[2],5110 nM
CC(=O)CC(=O)C1CC(=O)CCC1=O (configuration not stated),IC50,RAW264.7 [1],3630 nM
same,IC50,[2],6510 nM
